Experimental data from patent US12022844B2, “Nutritional composition, food/drink composition using nutritional composition, and modified milk powder using nutritional composition” (priority 2018, dated 2024).

Test system: Lactobacillus acidophhilus ATCC4356
Test: Single bacterial culturing with HMO as sugar source, OD650
Format: cell-based, Lactobacillus acidophilus
Conditions: ATCC 4356^T, sugar source 2%, 8 h, Table 6
Description: A10% solution of glucose (manufactured by Nakarai Tesque Inc.), and 2′-FL ((≥95%) Funakoshi, available from sigma), and LNnT (manufactured by ELICITYL) as examples of HMOs was prepared with ion exchanged water, and was subjected to sterile filtration using Millex-GV (SLGV033RS).
Lactobacilli MRS Broth (BD) (0.05% L-Cysteine Hydrochloride for Bacteria of the genus Bifidobacterium) was added to strains of Table 1 below (bacteria belonging to Bifidobacterium bifidum) and Table 2 below. After a sterilization treatment, 3% of the bacterial solution was inoculated, and anaerobically cultured (pre-pre cultured) at 37° C. for 16 h. […]
OD650 was measured from each well in the plates in the above (4) and the above (5) before (0 h) culturing and after (8 h) culturing, by MICROPLATE READER SH-9000 (manufactured by CORONA ELECTRIC). […] After the DNA extraction, the number of proliferating bacteria of Bifidobacteria/lactobacilli was analyzed by using the bacterial species-specific primer noted in Table 4, by a quantitative PCR method (see “Structural analysis of intestinal flora”—analysis of bacterial flora in human feces using quantitative PCR—by Kouichi Watanabe, Enterobacteriological journal, 20:35-42, 2006).
Regarding strains in Table 2, each strain was cultured as a single bacterium by 2′-FL or LNnT (HMOs) as a sugar source, and OD650 was measured. […]

2′-fucosyllactose [2′-FL]
OD650 increase value: 0.01
